Read-outs that look alike come from different tables or passages of the source.
Columns and labels:
[1] = Cytotoxicity Determination (CCK-8, without addition of virus); format: cell-based; details: human, 50% cytotoxicity concentration (CC50)
Protocol: (§1) CPE reduction assays are performed as described by Sidwell and Huffman et al., Appl. Microbiol. (1971) 22(5):797-801 with slight modifications. HEp-2 cells (ATCC #, CCL-23) are seeded at a density of 1,500 cells/30 μl/well into the 384-well cell plate(s) (Corning #3701) one day prior to the assay. Compounds are added into 384-well cell plates by Labcyte POD 810 Plate Assembler system. Each of the test compounds is provided to duplicate wells of a 384-well cell plate at final concentrations starting from 100 μM or 1 μM using 1/3 stepwise dilutions for 9 points. Quick-thaw Respiratory Syncytial Virus (RSV) long strain (ATCC #VR-26) stock in a 37° C. water bath. Place on ice until ready to use. Viruses are diluted to the concentration of 100 TCID50/30 μL with medium and 30 μl diluted RSV are added into related wells of 384-well cell plates. For each plate, sixteen wells are set aside as uninfected, untreated cell controls (CC), and nine wells per test plate receive virus only as a control for virus replication (VC). The final DMSO concentration of all wells is 1%. Place the plates at 37° C., 5% CO2 for 5 days.
In order to determine the compound cytotoxicity, in parallel, each of the compounds is applied to duplicate wells in a 384-well cell plate at serial final concentrations starting from 100 μM using 1/2 stepwise dilutions for 7 points without addition of virus. Incubate the cells at 37° C., 5% CO2 for 5 days. Add 6 μL CCK-8 into each well and incubate in a CO2 incubator at 37° C. for 3-4 hours.

recombinant RSV complex = recombinant RSV complex (Human respiratory syncytial virus A, UniProt P28887); experiment: RSV Polymerase Inhibition Assay; format: biochemical
Protocol: Standard RSV polymerase assays were conducted in the presence of 10 nM recombinant RSV complex in a reaction buffer containing Tris-HCl pH7.5, 6 mM MgCl2, and other additives and substrates including RNA oligonucleotides and radionucleotides. Standard reactions were incubated in 96-well plate format for 2 h at 30° C., in the presence of increasing concentration of inhibitor. The reaction was stopped with 90 μL of 0.1M EDTA, and the reaction product was transferred to a “reading” 96-well plate. After washing of the plate, radiolabeled RNA products were detected according to standard procedures with a Trilux Topcount scintillation counter.

[2] = system: Respiratory Syncytial Virus (RSV) long strain; experiment: microbe, parasite or virus in culture; format: cell-based; details: human respiratory syncytial virus, Tables A and B list compounds by EC50 band
Protocol: as §1
After 5 days incubation, observe the CPE of cells in all wells. […] Six μl of cell counting kit-8 reagent (CCK-8, Dojindo Molecular Technologies Inc., CK04-20) are added to each well, which allows colorimetric assays to determine the number of viable cells through the dehydrogenase activity detection. After 3-4 hour incubation, the absorbance of each well is measured with a spectrophotometric plate reader at 450 nm wavelength, using a 630 nm filter as background according to manufacturer's instruction.

[3] = HEp-2, 120 h, read-out: 50% effective concentration (EC50), HEp-2 cells infected with RSV long strain, 5 days, CCK-8 readout

Chain of recombinant RSV complex (P28887 whole entry): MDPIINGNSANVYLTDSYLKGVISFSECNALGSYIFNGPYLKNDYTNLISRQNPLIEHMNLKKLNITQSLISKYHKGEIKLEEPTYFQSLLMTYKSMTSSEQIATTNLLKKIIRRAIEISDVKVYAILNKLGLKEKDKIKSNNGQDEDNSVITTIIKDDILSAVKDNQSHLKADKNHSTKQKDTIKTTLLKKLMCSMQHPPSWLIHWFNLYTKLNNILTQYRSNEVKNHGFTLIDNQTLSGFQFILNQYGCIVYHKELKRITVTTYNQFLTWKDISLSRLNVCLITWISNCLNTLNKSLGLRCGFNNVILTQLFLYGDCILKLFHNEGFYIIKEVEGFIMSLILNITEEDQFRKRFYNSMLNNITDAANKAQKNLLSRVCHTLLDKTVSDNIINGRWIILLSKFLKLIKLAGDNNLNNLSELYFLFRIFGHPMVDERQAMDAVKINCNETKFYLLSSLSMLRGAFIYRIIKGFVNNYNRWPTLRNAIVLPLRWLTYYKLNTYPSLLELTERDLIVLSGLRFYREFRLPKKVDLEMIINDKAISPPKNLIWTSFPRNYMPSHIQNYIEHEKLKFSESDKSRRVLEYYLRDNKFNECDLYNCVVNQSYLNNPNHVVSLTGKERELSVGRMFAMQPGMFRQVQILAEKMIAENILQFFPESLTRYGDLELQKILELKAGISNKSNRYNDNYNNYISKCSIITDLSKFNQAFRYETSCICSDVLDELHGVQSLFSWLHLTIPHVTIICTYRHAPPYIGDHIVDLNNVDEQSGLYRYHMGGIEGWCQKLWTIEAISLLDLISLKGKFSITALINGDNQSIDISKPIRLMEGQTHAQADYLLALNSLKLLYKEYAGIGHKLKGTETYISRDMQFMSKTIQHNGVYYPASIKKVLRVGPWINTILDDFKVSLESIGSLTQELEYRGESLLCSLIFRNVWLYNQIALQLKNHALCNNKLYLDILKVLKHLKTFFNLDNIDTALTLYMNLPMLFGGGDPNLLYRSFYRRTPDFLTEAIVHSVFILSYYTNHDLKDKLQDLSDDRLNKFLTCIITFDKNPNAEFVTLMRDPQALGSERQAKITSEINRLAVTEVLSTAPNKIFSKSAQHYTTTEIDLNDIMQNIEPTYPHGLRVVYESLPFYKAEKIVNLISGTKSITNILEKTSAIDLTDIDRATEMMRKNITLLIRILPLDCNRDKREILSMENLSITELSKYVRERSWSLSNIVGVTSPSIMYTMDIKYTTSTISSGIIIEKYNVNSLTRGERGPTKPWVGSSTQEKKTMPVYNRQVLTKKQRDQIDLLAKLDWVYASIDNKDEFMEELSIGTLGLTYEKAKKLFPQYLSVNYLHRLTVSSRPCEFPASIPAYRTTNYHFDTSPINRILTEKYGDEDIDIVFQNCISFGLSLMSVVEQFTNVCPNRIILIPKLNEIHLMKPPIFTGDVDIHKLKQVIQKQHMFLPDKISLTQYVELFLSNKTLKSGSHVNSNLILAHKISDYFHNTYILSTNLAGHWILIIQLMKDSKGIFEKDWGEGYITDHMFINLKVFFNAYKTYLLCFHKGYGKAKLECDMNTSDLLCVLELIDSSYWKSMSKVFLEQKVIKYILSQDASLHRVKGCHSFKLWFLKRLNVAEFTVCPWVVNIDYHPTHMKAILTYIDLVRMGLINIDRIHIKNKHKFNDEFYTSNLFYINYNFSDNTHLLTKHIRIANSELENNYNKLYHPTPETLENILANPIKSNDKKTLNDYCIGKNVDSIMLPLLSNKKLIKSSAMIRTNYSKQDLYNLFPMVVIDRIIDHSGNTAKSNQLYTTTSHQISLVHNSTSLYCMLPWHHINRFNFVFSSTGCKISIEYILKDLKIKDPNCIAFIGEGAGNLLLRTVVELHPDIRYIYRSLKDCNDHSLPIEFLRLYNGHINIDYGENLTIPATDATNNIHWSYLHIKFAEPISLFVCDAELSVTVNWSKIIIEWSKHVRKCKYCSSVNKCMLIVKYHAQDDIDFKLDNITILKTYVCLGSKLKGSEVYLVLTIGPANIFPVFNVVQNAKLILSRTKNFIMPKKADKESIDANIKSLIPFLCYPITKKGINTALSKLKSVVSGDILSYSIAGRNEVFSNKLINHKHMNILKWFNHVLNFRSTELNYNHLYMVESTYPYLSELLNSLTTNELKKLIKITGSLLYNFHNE
Chain of recombinant RSV complex (P03421 whole entry, further chain): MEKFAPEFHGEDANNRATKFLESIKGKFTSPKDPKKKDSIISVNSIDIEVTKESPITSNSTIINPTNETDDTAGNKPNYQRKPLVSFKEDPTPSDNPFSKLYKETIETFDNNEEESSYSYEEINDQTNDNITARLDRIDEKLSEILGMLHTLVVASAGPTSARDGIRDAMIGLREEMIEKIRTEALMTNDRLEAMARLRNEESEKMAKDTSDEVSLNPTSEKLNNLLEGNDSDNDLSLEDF

Compound	CC50 at 5 days [1]	IC50 (recombinant RSV complex)	other results
COc1cc(C(=O)NCC2(c3ccc(OC)c(-c4ccc(F)c(Cl)c4)n3)CNC(=O)O2)ccc1OCCO (stereo not shown) [Compound 180]	> 100 µM	< 100 µM	–
COc1ccc(-c2cc(C(C)(C)N)cc(C(O)(CNC(=O)c3ccc(OCCO)c(OC)c3)C(F)(F)F)n2)cn1 (stereo not shown) [Compound 660]	–	< 10 µM	–
COc1cc(C(=O)NCC(C)(O)c2ccc(OC)c(-c3ccc(F)c(Cl)c3)n2)ccc1OCC#N (stereo not shown) [Compound 367]	–	< 1 µM	–
COc1cc(C(=O)NCC(C)(O)c2ccc(OC)c(-c3ccc(F)c(Cl)c3)n2)ccc1-c1cccnc1 (stereo not shown) [Compound 146]	–	< 10 µM	–
COc1cc(C(=O)NCC(O)(c2cc3c(c(-c4ccc(Cl)nc4)n2)OCC3(C)N)C(F)(F)F)ccc1OC1CC1 (stereo not shown) [Compound 668]	–	< 1 µM	–
COc1cc(C(=O)NCC(O)(c2cc(C(C)(C)N)cc(-c3ccc(C(F)(F)F)cc3)n2)C(F)(F)F)ccc1OCCO (stereo not shown) [Compound 658]	–	< 1 µM	–
COc1cc(C(=O)NCC(O)(c2ccc(OC)c(C3COc4c(F)cccc43)n2)C2CC2)ccc1OCCO (stereo not shown) [Compound 427]	> 100 µM	< 100 µM	–
COc1cc(C(=O)NCC(O)(c2cc(C(C)(C)N)cc(-c3ccc(F)c(Cl)c3)n2)C(F)(F)F)ccc1OCC(=O)NS(C)(=O)=O (stereo not shown) [Compound 618]	–	< 1 µM	–
COc1cc(C(=O)NCC(C)(O)c2cccc(-c3ccc(F)c(Cl)c3)c2)ccc1OCCO (stereo not shown) [Compound 439]	> 100 µM	< 100 µM	–
COc1cc(C(=O)NCC(C)(O)c2csc(-c3ccc(F)c(Cl)c3)n2)ccc1OCCO (stereo not shown) [Compound 441]	> 100 µM	< 100 µM	–
COc1cc(C(=O)NCC(O)(c2cc(C(C)(C)N)cc(-c3ccc(F)c(Cl)c3)n2)C(F)(F)F)ccc1OCc1nnn[nH]1 (stereo not shown) [Compound 616]	> 100 µM	< 10 µM	–
COc1cc(C(=O)NCC(O)(CN2CCCCC2)c2ccc(OC)c(-c3ccc(F)c(Cl)c3)n2)ccc1OCCO (stereo not shown) [Compound 188]	–	< 10 µM	–
CCOc1ccc(C(=O)NCC(O)c2ccc(OC)c(-c3ccc(F)c(Cl)c3)n2)cc1OC (stereo not shown) [Compound 154]	–	< 10 µM	–
COc1cc(C(=O)NCC(O)(c2ccc(OCCN(C)C)c(-c3ccc(F)cc3)n2)C(F)(F)F)ccc1OC1CC1 (stereo not shown) [Compound 480]	–	< 10 µM	–
COc1cc(C(=O)NCC(O)(CN(CCN)CC(=O)O)c2ccc(OC)c(-c3ccc(F)c(Cl)c3)n2)ccc1OCCO (stereo not shown) [Compound 183]	> 100 µM	< 1 µM	–
COc1cc(C(=O)NCC(O)(c2cc(C(C)(N)CF)cc(-c3ccc(F)cc3)n2)C(F)(F)F)ccc1OCCO (stereo not shown) [Compound 676]	–	< 1 µM	–
COc1cc(C(=O)NCC(O)(c2ccc(OC)c(-c3cnc(Cl)s3)n2)C(F)(F)F)ccc1OCCO (stereo not shown) [Compound 468]	10 to 100 µM	–	–
COc1cc(C(=O)NCC(C)(O)c2ccc(OC)c(-c3ccc(F)c(Cl)c3)n2)ccc1N1CCCC1=O (stereo not shown) [Compound 151]	–	< 10 µM	–
COc1cc(C(=O)NCC(C)(O)c2nc(-c3ccc(F)c(Cl)c3)c(C)n2C)ccc1OCCF (stereo not shown) [Compound 144]	–	< 100 µM	–
COc1cc(C(=O)NCC(O)(c2ccc(OC)c(-c3ccc(F)c(Cl)c3)n2)C(F)(F)F)ccc1OC1CCN(C)C1=O (stereo not shown) [Compound 350]	–	< 10 µM	–
COc1cc(C(=O)NCC(O)(c2cc(C(C)(C)NC(=O)OCc3ccccc3)cc(-c3ccc(F)c(Cl)c3)n2)C(F)(F)F)ccc1OC1CC1 (stereo not shown) [Compound 399]	–	< 1 µM	–
CC(C)(N)c1cc(-c2ccc(F)c(Cl)c2)nc(C(O)(CNC(=O)c2coc(Cl)n2)C(F)(F)F)c1 (stereo not shown) [Compound 478]	–	< 10 µM	EC50 [2, 3]: 1 to 50 µM
COc1cc(C(=O)NCC(O)(c2cc3c(c(-c4ccnc(C)c4)n2)OCC3(C)N)C(F)(F)F)ccc1OCCO (stereo not shown) [Compound 670]	> 100 µM	–	–
COc1cc(C(=O)NC[C@](O)(c2cc3c(c(-c4ccc(C#N)cc4)n2)OC[C@@]3(C)N)C(F)(F)F)ccc1OCCO [Compound 604c]	10 to 100 µM	< 10 µM	–
COc1cc(C(=O)NCC(O)(c2cc3c(c(-c4ccc(C(N)=O)cc4)n2)OCC3(C)N)C(F)(F)F)ccc1OCCO (stereo not shown) [Compound 674]	> 100 µM	–	–

Compound	CC50 at 5 days [1]	IC50 (recombinant RSV complex)	other results
COc1cc(C(=O)NCC(O)(c2cc(C(C)(C)N)cc(-c3ccc(F)cc3)n2)C(F)(F)F)ccc1OCC(F)(F)F (stereo not shown) [Compound 573]	–	< 1 µM	–
CC(C)(N)c1cc(-c2ccc(F)c(Cl)c2)nc(C(O)(CNC(=O)c2cnc(Cl)s2)C(F)(F)F)c1 (stereo not shown) [Compound 276]	–	< 1 µM	EC50 [2, 3]: 1 to 50 µM
COc1cc(C(=O)NCC(O)(c2cc(C(C)(C)N)cc(-c3ccc(C#N)cc3)n2)C(F)(F)F)ccc1OCC(N)=O (stereo not shown) [Compound 625]	> 100 µM	< 1 µM	–
COc1cc(C(=O)NCC(O)(c2cc(C(C)(N)C(F)F)cc(-c3ccc(F)cc3)n2)C(F)(F)F)ccc1OCCO (stereo not shown) [Compound 669]	–	< 1 µM	–
CCOC(=O)COc1ccc(C(=O)NCC(O)(c2cc(C(C)(C)N)cc(-c3ccc(F)c(Cl)c3)n2)C(F)(F)F)cc1OC (stereo not shown) [Compound 617]	10 to 100 µM	< 1 µM	–
COc1ccc(C(O)(CNC(=O)c2ccc3ncccc3c2OC)C(F)(F)F)nc1-c1ccc(F)c(Cl)c1 (stereo not shown) [Compound 269]	10 to 100 µM	–	–
COc1cc(C(=O)NCC(O)(c2cc(CCCN)cc(-c3ccc(F)c(Cl)c3)n2)C(F)(F)F)ccc1OC1CC1 (stereo not shown) [Compound 591]	–	< 1 µM	EC50 [2, 3]: < 1 µM
CC(C)(N)c1cc(-c2ccc(F)c(Cl)c2)nc(C(O)(CNC(=O)c2csc(Cl)n2)C(F)(F)F)c1 (stereo not shown) [Compound 280]	–	< 1 µM	EC50 ([2]; 120 h, read-out: 50% effective concentration (EC50), HEp-2 cells infected with RSV long strain, 5 days, CCK-8 readout): 1 to 50 µM
COc1cc(C(=O)NCC(O)(c2ccc(OC)c(-c3ccc(F)c(Cl)c3)n2)C2CC2)ccc1OCc1ncnn1C (stereo not shown) [Compound 352]	–	< 10 µM	–
COc1cc(C(=O)NCC(O)(c2cc3c(c(-c4ccc(F)cc4)n2)OCC3(C)N)C(F)(F)F)ccc1OCS(N)(=O)=O (stereo not shown) [Compound 648]	–	< 1 µM	–
CC1(N)COc2c1cc(C(O)(CNC(=O)c1ccc(OC3CC3)c(CO)c1)C(F)(F)F)nc2-c1ccc(F)cc1 (stereo not shown) [Compound 481]	–	< 1 µM	–
COc1cc(C(=O)NCC(C)(O)c2ccc(OC)c(-c3ccc(F)c(Cl)c3)n2)ccc1OCCN (stereo not shown) [Compound 382]	–	< 100 µM	–
COc1cc(C(=O)NCC(O)(c2cc3c(c(-c4ccc(C)nc4)n2)OCC3(C)N)C(F)(F)F)ccc1OCCO (stereo not shown) [Compound 671]	> 100 µM	–	–
COc1cc(C(=O)NCC(O)(c2cc3c(c(-c4ccc(F)c(Cl)c4)n2)OCC3(C)C)C(F)(F)F)ccc1OC1CCNC1=O (stereo not shown) [Compound 203]	–	< 10 µM	–
CC(C)(N)c1cc(-c2ccc(F)c(Cl)c2)nc(C(O)(CNC(=O)c2ccc3c(c2)OCO3)C(F)(F)F)c1 (stereo not shown) [Compound 274]	–	< 1 µM	EC50 [2, 3]: < 1 µM
COc1cc(C(=O)NCC(C)(O)c2nc(-c3ccc(F)c(Cl)c3)ccc2F)ccc1OCC(N)=O (stereo not shown) [Compound 377]	–	< 10 µM	–
COc1cc(C(=O)NCC(O)(Cn2ccnc2)c2cc3c(c(-c4ccc(F)c(Cl)c4)n2)OCC3(C)C)ccc1OCCO (stereo not shown) [Compound 225]	–	< 1 µM	–
COc1cc(C(=O)NCC(O)c2ccc(OC)c(-c3ccc(F)c(Cl)c3)n2)ccc1OC(F)F (stereo not shown) [Compound 153]	–	< 10 µM	–
COc1cc(C(=O)NCC(O)(c2cc(CCN)cc(-c3ccc(F)c(Cl)c3)n2)C(F)(F)F)ccc1OC1CC1 (stereo not shown) [Compound 522]	–	< 1 µM	–
CC(C)(N)c1cc(-c2ccc(F)cc2)nc(C(O)(CNC(=O)c2cnc[nH]2)C(F)(F)F)c1 (stereo not shown) [Compound 613]	> 100 µM	< 10 µM	–
COc1cc(-c2csc3c(F)cccc23)nc(C(O)CNC(=O)c2cc(OC)c(OC)cc2O)c1 (stereo not shown) [Compound 110]	10 to 100 µM	–	–
CNC(=O)COc1ccc(C(=O)NCC(O)(c2ccc(OC)c(-c3ccc(F)c(Cl)c3)n2)C(F)(F)F)cc1OC (stereo not shown) [Compound 402]	–	< 1 µM	–
COc1cc(C(=O)NCC(O)(c2cc3c(c(-c4ccc(F)cc4)n2)OCC32CCCN2)C(F)(F)F)ccc1OCCO (stereo not shown) [Compound 652]	–	< 1 µM	–
COc1cc(C(=O)NCC(O)(c2cc(CNC(C)=O)cc(-c3ccc(F)cc3)n2)C(F)(F)F)ccc1OC1CC1 (stereo not shown) [Compound 329]	–	< 1 µM	–

Reference: patent publication US11021444B2, “Antiviral compounds” (priority 2013, dated 2021)
